Measured values from US9708336B2, “Metallo-beta-lactamase inhibitors” (priority 2014, dated 2017).
pIC50: −log10 of the molar value. Where two headings read alike, the source gives them in different places.

Key:
NDM-1 = NDM-1 (Klebsiella pneumoniae, UniProt C7C422); experiment: biochemical; type: biochemical; settings: read-out: NDM-1 IC50
[1] = test system: Escherichia coli expressing NDM-1 (CLB30016); experiment: Antibiotic potentiation activity: synergistic concentration (MITC95) with imipenem, OD600 growth; type: cell-based; settings: for Escherichia coli MITC95: 95% growth inhibition
In short: (§1)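 Clinical MBL-producing strains (E. coli NDM-1, S. marcescens IMP-1, K. pneumoniae VIM-1) from overnight plates were diluted 1:100 into 1.1×CAMHB. Compound was tested with imipenem at 4 μg/ml (optionally 1 μg/ml) or without it. After 22–24 h at 35 °C, growth was read as OD600.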

[2] = test system: Klebsiella pneumoniae expressing VIM-1 (IHMA599644); experiment: as above; type: cell-based; settings: for Klebsiella pneumoniae MITC95: 95% growth inhibition
In short: as §1

[3] = test system: Serratia marcescens expressing IMP-1 (CL5741); experiment: as above; type: cell-based; settings: for Serratia marcescens MITC95: 95% growth inhibition
In short: as §1

VIM-1 = VIM-1 (Pseudomonas aeruginosa (strain ATCC 15692 / DSM 22644 / CIP 104116 / JCM 14847 / LMG 12228 / 1C / PRS 101 / PAO1), UniProt A0A0F7KYQ8); experiment: Enzyme activity: determination of IC50, fluorescence assay with CCF2-FA substrate (VIM-1); type: biochemical
IMP-1 = IMP-1 (Serratia marcescens, UniProt P52699); experiment: biochemical; type: biochemical; settings: read-out: IMP-1 IC50
[4] = NDM-1 enzyme, CCF2-FA substrate
[5] = Klebsiella pneumoniae IHMA599644 (VIM-1)
[6] = Serratia marcescens CL5741 (IMP-1)
[7] = VIM-1 enzyme, CCF2-FA substrate, read-out: VIM-1 IC50
[8] = IMP-1 enzyme, CCF2-FA substrate
[9] = NDM-1 enzyme, CCF2-FA fluorescence assay
[10] = Escherichia coli expressing NDM-1 (CLB30016)
[11] = Klebsiella pneumoniae expressing VIM-1 (IHMA599644)
[12] = Serratia marcescens expressing IMP-1 (CL5741)
[13] = VIM-1 enzyme, CCF2-FA fluorescence assay, read-out: VIM-1 IC50
[14] = IMP-1 enzyme, CCF2-FA fluorescence assay
[15] = fluorescence assay with CCF2-FA substrate
[16] = concentration giving 95% inhibition of bacterial growth

NDM-1, sequence (C7C422 whole entry, looked up, species assumed): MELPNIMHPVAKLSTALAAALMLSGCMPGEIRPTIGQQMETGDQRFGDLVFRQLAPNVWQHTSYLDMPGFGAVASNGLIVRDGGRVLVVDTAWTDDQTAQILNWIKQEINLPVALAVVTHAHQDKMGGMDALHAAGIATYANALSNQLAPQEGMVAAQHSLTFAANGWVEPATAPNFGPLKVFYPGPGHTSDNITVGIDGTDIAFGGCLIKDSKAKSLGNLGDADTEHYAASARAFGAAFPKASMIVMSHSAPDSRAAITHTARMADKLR
IMP-1, sequence (P52699 whole entry, looked up): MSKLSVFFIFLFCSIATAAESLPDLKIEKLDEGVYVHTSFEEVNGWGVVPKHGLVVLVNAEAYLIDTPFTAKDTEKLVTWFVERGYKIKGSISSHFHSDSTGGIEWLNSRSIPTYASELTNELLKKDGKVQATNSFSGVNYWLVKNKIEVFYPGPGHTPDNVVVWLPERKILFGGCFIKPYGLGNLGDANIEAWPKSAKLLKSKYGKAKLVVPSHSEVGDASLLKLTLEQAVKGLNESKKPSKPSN

SMILES | pIC50 (NDM-1; [4]) | Escherichia coli MITC95 ([1]; (CLB30016, NDM-1)) [µM] | Klebsiella pneumoniae MITC95 [2, 5] [µM] | Serratia marcescens MITC95 [3, 6] [µM] | pIC50 (VIM-1; [7]) | pIC50 (IMP-1; [8]) | pIC50 (NDM-1; [9]) | Escherichia coli MITC95 [1, 10] [µM] | Klebsiella pneumoniae MITC95 [2, 11] [µM] | Serratia marcescens MITC95 [3, 12] [µM] | pIC50 (VIM-1; [13]) | pIC50 (IMP-1; [14]) | further results
NS(=O)(=O)c1c(C(F)(F)F)ccc(-c2cnc3[nH]ccc3c2)c1-c1nnn[nH]1 [Example 708, 3-(1H-pyrrolo[2,3-b]pyridin-5-yl)-2-(1H-tetrazol-5-yl)-6-(trifluoromethyl)benzenesulfon-amide] | 9.42 | 1.563 | 6.25 | 6.25 | 9.84 | 8.80 | – | – | – | – | – | – | –
N=C(N)N1CCC(Cc2ccc(-c3ccc(C4CNC4)cc3)c(-c3nn[nH]n3)c2S(N)(=O)=O)CC1 [Example 604, 4-[[4-[4-(azetidin-3-yl)phenyl]-2-sulfamoyl-3-(2H-tetrazol-5-yl)phenyl]methyl]piperidine-1-carboxamidine] | 8.48 | 1.563 | 1.563 | 6.25 | 9.05 | 7.38 | – | – | – | – | – | – | –
NS(=O)(=O)c1cccc(-c2ccc(CN3C[C@H](O)C[C@H]3CO)cc2)c1-c1nnn[nH]1 [Example 387, 4′-{[(2S,4R)-4-hydroxy-2-(hydroxymethyl)pyrrolidin-1-yl]methyl}-2-(1H-tetrazol-5-yl)biphenyl-3-sulfonamide] | – | – | – | – | – | – | 7.97 | 2.344 | 100 | 3.125 | 6.35 | 6.84 | –
Nc1nc2c(-c3ccc(CCCO)c(S(N)(=O)=O)c3-c3nn[nH]n3)cccc2s1 [Example 533, 3-(2-Aminobenzo[d]thiazol-4-yl)-6-(3-hydroxypropyl)-2-(2H-tetrazol-5-yl)benzenesulfonamide] | 9.06 | 3.125 | 12.5 | 12.5 | 8.54 | 7.78 | – | – | – | – | – | – | –
CC(C)(O)C1CN(Cc2ccc(-c3cccc(S(N)(=O)=O)c3-c3nnn[nH]3)cc2)C1 [Example 336, 4′-((3-(2-hydroxypropan-2-yl)azetidin-1-yl)methyl)-2-(1H-tetrazol-5-yl)-[1,1′-biphenyl]-3-sulfonamide] | – | – | – | – | – | – | 7.47 | 0.7813 | 100 | 4.688 | 6.20 | 6.42 | –
CN1CCC(NCc2ccc(-c3cccc(S(N)(=O)=O)c3-c3nnn[nH]3)cc2)C1=O (stereo not drawn) [Example 349, 4′-{[(1-methyl-2-oxopyrrolidin-3-yl)amino]methyl}-2-(1H-tetrazol-5-yl)biphenyl-3-sulfonamide] | – | – | – | – | – | – | 8.36 | 6.25 | >200 | 2.344 | – | 7.21 | pIC50 (VIM-1; VIM-1 IC50, VIM-1 enzyme, CCF2-FA fluorescence assay): 6.20
NS(=O)(=O)c1c(C(F)(F)F)ccc(C2CCCC2)c1-c1nnn[nH]1 [Example 490, 3-cyclopentyl-2-(1H-tetrazol-5-yl)-6-(trifluoromethyl)benzenesulfonamide] | – | – | – | – | – | – | 8.59 | 1.281 | 9.375 | 0.375 | 8.63 | 8.25 | –
NS(=O)(=O)c1cccc(-c2ccc(CN3CCCC3CO)cc2)c1-c1nnn[nH]1 (stereo not drawn) [Example 395, 4′-{[2-(hydroxymethyl)pyrrolidin-1-yl]methyl}-2-(1H-tetrazol-5-yl)biphenyl-3-sulfonamide] | – | – | – | – | – | – | 7.84 | 1.563 | 100 | 3.125 | 6.46 | 6.65 | –
NS(=O)(=O)c1cccc(C2CCCCC2)c1-c1nnn[nH]1 [Example 151, 3-cyclohexyl-2-(1H-tetrazol-5-yl)benzenesulfonamide] | – | – | – | – | – | – | – | – | – | – | – | – | pIC50 (NDM-1; [15]): 8.90; Escherichia coli expressing NDM-1 (CLB 30016) MITC95 [1, 16]: 1.172 µM; Klebsiella pneumoniae expressing VIM-1 (IHMA 599644) MITC95 [2, 16]: 37.5 µM; Serratia marcescens expressing IMP-1 (CL5741) MITC95 [3, 16]: 1.563 µM; pIC50 (VIM-1; fluorescence assay with CCF2-FA substrate, read-out: VIM-1 IC50): 7.50; pIC50 (IMP-1; [15]): 7.50
